From US20160082015A1, “METHODS, COMPOSITIONS AND KITS FOR PROMOTING MOTOR NEURON SURVIVAL AND TREATING AND DIAGNOSING NEURODEGENERATIVE DISORDERS” (PRESIDENT AND FELLOWS OF HARVARD COLLEGE, priority 2013, published 2016)

Test system: GSK-3-deficient MN cultures
Assay: MN survival using GSK-3 knockout lines
Type: cell-based, mouse
Settings: trophic factors withdrawn
Source text: In these cultures, approximately 70% of Isl+/MAP2+ cells were GFP+(i.e., MNs). However, after trophic factor withdrawal, because MNs die selectively under these conditions, only about 50% of Isl+/MAP2+ cells were GFP+MNs. This means that counting Isl+/MAP2+ cells could overestimate the amount of survival after trophic factor withdrawal by approximately 40%. When deprived of neurotrophins, 35% of wild-type Isl+/MAP2+ cells survived, while 44%, 57% and 54% of Isl+/MAP2+ cells in GSK-3[…]-KO, GSK-3[…]-KO and 3/4-KO cultures survived. Using the correction factor for overcounting surviving MNs, this would mean that wild-type MN survival would be approximately 25%, while the KO MNs would have 31%, 41% and 39% survival, respectively.
The inventors used another approach to address the issue of GSK-3 and survival. The inventors produced MNs from the following mouse ESC lines: GSK-3α^−/− (GSK-3α-KO), GSK-3^−/− (GSK-3β-KO), and GSK-3α^+/−/GSK-3β^−/− (3/4-KO). Note that ESCs that are GSK-3α^−/−/GSK-3β^−/− were not able to differentiate into neurons (Doble et al., 2007). Cell death was again initiated by withdrawal of trophic factors and the ability of kenpaullone to promote survival was evaluated. […] The inventors validated this staining method using MN cultures prepared from Hb9::GFP ESCs. In these cultures, approximately 70% of Isl^+/MAP2^+ cells were GFP^+ (i.e., MNs). […]

O=C1Cc2c([nH]c3ccc(Br)cc23)-c2ccccc2N1 [Kenpaullone]
MN survival in GSK-3-deficient cultures: still active
